In ChEMBL document CHEMBL4418912, “Methods of identifying antagonists of the hTAS2R46 bitter taste receptor” (2014):
Active and inactive are the calls of the source. The rule behind the calls is not given here.

Tests used:
Assay type in all cases: functional, cell-based
[1] = biological target: T1, Taste receptor type 2 member 7 (Homo sapiens) (UniProt Q9NYW3); assay: Antagonist activity at recombinant human N-terminal rat ST3 receptor-fused TAS2R7 expressed in HEK293T cells co-expressing Galpha16gust44 assessed as inhibition of quinine sulfate-induced increase in intracellular calcium level at 100 uM by FLIPR assay
T1 sequence (whole entry): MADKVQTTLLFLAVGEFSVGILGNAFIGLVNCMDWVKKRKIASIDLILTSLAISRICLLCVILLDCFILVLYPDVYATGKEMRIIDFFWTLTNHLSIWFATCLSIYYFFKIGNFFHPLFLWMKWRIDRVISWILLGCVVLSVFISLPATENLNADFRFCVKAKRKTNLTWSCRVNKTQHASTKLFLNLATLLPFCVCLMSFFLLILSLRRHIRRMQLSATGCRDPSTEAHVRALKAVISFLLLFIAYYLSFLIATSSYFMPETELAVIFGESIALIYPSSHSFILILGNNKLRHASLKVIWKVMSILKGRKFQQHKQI

[2] = biological target: T2, Taste receptor type 2 member 4 (Homo sapiens) (UniProt Q9NYW5); assay: Agonist activity at recombinant human N-terminal rat ST3 receptor-fused TAS2R4 expressed in HEK293T cells co-expressing Galpha16gust44 assessed as increase in intracellular calcium level at 100 uM by FLIPR assay
T2 sequence (whole entry): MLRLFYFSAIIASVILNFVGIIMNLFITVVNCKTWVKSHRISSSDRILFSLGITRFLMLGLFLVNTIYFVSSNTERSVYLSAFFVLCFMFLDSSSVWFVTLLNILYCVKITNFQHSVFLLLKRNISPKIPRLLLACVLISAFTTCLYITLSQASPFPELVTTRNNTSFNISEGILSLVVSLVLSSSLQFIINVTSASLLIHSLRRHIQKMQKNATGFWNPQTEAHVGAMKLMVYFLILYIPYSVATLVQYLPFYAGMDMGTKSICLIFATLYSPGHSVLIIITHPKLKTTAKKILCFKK

[3] = biological target: T1, Taste receptor type 2 member 7 (Homo sapiens); assay: Agonist activity at recombinant human N-terminal rat ST3 receptor-fused TAS2R7 expressed in HEK293T cells co-expressing Galpha16gust44 assessed as increase in intracellular calcium level at 100 uM by FLIPR assay
[4] = biological target: T3, Taste receptor type 2 member 8 (Homo sapiens) (UniProt Q9NYW2); assay: Agonist activity at recombinant human N-terminal rat ST3 receptor-fused TAS2R8 expressed in HEK293T cells co-expressing Galpha16gust44 assessed as increase in intracellular calcium level at 100 uM by FLIPR assay
T3 sequence (whole entry): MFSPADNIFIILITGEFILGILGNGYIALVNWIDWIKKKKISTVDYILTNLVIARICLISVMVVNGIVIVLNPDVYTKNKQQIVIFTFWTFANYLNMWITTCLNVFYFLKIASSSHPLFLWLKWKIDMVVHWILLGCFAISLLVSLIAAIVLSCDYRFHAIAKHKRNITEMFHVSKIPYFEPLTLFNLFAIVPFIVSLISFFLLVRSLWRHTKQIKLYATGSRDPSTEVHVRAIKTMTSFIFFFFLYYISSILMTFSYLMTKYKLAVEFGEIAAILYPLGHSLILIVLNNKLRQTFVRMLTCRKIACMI

[5] = biological target: T4, Taste receptor type 2 member 9 (Homo sapiens) (UniProt Q9NYW1); assay: Agonist activity at recombinant human N-terminal rat ST3 receptor-fused TAS2R9 expressed in HEK293T cells co-expressing Galpha16gust44 assessed as increase in intracellular calcium level at 100 uM by FLIPR assay
T4 sequence (whole entry): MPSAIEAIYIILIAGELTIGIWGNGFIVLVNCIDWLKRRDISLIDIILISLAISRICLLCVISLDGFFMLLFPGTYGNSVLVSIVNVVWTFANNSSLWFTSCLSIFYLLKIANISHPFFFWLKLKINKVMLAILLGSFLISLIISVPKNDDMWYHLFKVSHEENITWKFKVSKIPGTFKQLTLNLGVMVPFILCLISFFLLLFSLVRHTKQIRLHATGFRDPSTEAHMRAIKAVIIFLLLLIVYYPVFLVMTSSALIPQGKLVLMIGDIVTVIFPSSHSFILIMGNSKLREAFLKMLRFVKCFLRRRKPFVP

[6] = biological target: Taste receptor type 2 member 40 (Homo sapiens) (UniProt P59535); assay: Agonist activity at recombinant human N-terminal rat ST3 receptor-fused TAS2R40 expressed in HEK293T cells co-expressing Galpha16gust44 assessed as increase in intracellular calcium level at 100 uM by FLIPR assay
Taste receptor type 2 member 40 (Homo sapiens), sequence (P59535 whole entry, the tested form may be a part): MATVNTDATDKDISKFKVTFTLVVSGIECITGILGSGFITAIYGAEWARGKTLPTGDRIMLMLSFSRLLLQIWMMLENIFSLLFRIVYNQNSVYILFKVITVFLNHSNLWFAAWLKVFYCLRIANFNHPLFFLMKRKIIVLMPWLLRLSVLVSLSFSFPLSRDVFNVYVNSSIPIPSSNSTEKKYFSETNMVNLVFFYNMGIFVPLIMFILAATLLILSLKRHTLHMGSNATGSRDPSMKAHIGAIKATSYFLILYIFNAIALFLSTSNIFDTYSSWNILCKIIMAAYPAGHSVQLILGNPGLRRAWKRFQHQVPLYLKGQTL

[7] = biological target: T5, Taste receptor type 2 member 43 (Homo sapiens) (UniProt P59537); assay: Agonist activity at recombinant human N-terminal rat ST3 receptor-fused TAS2R43 expressed in HEK293T cells co-expressing Galpha16gust44 assessed as increase in intracellular calcium level at 100 uM by FLIPR assay
T5 sequence (whole entry): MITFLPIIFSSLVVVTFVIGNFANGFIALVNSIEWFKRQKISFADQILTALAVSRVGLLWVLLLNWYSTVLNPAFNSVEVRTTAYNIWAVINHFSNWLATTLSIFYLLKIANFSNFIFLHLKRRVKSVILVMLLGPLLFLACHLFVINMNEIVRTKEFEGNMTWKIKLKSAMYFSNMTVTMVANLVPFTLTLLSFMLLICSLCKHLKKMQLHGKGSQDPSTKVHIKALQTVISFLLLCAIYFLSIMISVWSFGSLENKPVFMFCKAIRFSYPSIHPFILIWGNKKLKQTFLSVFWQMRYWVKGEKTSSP

[8] = biological target: T6, Taste receptor type 2 member 5 (Homo sapiens) (UniProt Q9NYW4); assay: Potentiation of denatonium saccharide-induced agonist activity at recombinant human N-terminal rat ST3 receptor-fused TAS2R5 expressed in HEK293T cells co-expressing Galpha16gust44 assessed as increase in intracellular calcium level at 100 uM by FLIPR assay
T6 sequence (whole entry): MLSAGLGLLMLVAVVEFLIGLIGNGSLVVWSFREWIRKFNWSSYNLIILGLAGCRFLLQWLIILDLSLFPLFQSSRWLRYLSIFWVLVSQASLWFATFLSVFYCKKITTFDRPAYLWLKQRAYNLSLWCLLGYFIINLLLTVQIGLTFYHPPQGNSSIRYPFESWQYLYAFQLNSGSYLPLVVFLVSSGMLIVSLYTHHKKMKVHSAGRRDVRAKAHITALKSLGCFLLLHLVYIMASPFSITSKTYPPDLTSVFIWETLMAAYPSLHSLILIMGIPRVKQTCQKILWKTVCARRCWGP

Compound | inhibition [1] | Activity [2] | Activity [3] | Activity [4] | Activity [5] | Activity [6] | Activity [7] | Activity [8]
C/C1=C\C[C@H](O)[C@@H](C)C[C@H]2OC(=O)[C@@H](C)[C@@H]2CC1 | inactive | – | – | – | – | – | – | –
C/C1=C\C[C@H](O)/C(C)=C/[C@H]2OC(=O)[C@@H](C)[C@@H]2CC1 | – | Active | Active | Active | inactive | inactive | inactive | Active
